Assay [1] has as its target T1, full-length beta-Catenin (Uniprot ID P35222) (Homo sapiens, UniProt P35222).
T1 construct: 10 nM full-length beta-Catenin (Uniprot ID P35222)
T1 sequence (P35222 1-781): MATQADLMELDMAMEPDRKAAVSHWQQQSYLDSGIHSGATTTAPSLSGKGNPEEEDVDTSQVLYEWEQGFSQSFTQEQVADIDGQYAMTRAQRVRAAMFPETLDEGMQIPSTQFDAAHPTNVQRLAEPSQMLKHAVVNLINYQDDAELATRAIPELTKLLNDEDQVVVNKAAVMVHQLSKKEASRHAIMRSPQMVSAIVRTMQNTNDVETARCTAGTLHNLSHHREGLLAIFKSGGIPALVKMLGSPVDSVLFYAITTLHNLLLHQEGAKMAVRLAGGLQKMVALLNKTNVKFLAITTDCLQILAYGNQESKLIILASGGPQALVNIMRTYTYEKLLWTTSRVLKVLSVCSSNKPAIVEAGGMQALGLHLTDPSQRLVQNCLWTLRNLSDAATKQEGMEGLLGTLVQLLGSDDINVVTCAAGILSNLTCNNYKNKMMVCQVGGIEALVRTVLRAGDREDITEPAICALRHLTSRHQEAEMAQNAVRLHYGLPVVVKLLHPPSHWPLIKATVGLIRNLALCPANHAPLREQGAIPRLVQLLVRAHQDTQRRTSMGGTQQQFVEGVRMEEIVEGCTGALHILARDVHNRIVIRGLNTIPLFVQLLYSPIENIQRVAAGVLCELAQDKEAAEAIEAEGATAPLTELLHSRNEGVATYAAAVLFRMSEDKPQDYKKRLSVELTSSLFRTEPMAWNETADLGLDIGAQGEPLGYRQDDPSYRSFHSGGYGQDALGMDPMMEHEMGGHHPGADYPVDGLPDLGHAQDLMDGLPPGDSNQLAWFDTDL
The assay is described as follows: Fluorescence polarization IC50 (beta-catenin / 5FAM-TCF4 10-53 competition). In kind it is binding. The settings on record: fluorescence polarization; read-out: beta-Catenin FP IC50. A general note: Fluorescence polarisation rises when a labelled molecule tumbles more slowly, as on binding a larger partner.

Assay [2] addresses T2, beta-catenin/TCF4 engagement (Homo sapiens, UniProt P35222).
T2 construct: expressed in transfected cells; host or cells: HEK293
T2 sequence (P35222 1-781): T1 sequence (P35222 1-781)
The assay is described as follows: Nano-BRET target engagement assay (B-cat-Halo & TCF4-Luc in HEK293 cells). In kind it is cell-based. The conditions noted are these: absolute IC50; read-out: NanoBRET Abs IC50. (In BRET a luciferase serves as donor, and the signal depends on an acceptor being close.)

Consider `CC(=O)N1CCC[C@]12CC=CCCCC1(CCCC=CCCCCCC[C@@](C)(C(=O)N[C@@H](Cc3ccsc3)C(=O)N[C@@H](Cc3csc4ccccc34)C(=O)N[C@@H](CCC(N)=O)C(N)=O)NC(=O)[C@H](CCO)NC(=O)[C@H](Cc3ccccc3)NC(=O)[C@H](C)NC(=O)[C@H](C)NC(=O)[C@H](CC(=O)O)NC(=O)[C@H](CC(=O)O)NC1=O)NC(=O)[C@H](CC(C)(C)C)NC(=O)[C@H](CC(=O)O)NC2=O` (stereo partly drawn) [I-1389, Ac-PL3-Asp-Npg-B5-Asp-Asp-Ala-Ala-Phe-Hse-S8-3Thi-BztA-Gln-NH2], for which the IC50 came to 0.009 µM in assay [1] and 9.2 µM in assay [2].

Take `CC(=O)N1CCC[C@]12CC=CCCCC1(CCCC=CCCCCCC[C@@](C)(C(=O)N[C@@H](Cc3cccs3)C(=O)N[C@@H](Cc3csc4ccccc34)C(=O)N[C@@H](CCC(N)=O)C(N)=O)NC(=O)[C@H](CC(N)=O)NC(=O)[C@H](Cc3ccccc3)NC(=O)[C@H](C)NC(=O)[C@H](C)NC(=O)[C@H](CC(=O)O)NC(=O)[C@H](CC(=O)O)NC1=O)NC(=O)[C@H](CC(C)(C)C)NC(=O)[C@H](CC(=O)O)NC2=O` (stereo partly drawn) [I-1391, Ac-PL3-Asp-Npg-B5-Asp-Asp-Ala-Ala-Phe-Asn-S8-2Thi-BztA-Gln-NH2]: the IC50 worked out at 0.011 µM in assay [1] and 35 µM in assay [2].

Consider `CC(=O)N1CCC[C@]12CC=CCCCC1(CCCC=CCCCCCC[C@@](C)(C(=O)N[C@@H](Cc3cccs3)C(=O)N[C@@H](Cc3csc4ccccc34)C(=O)N[C@@H](CCC(N)=O)C(N)=O)NC(=O)[C@H](CCO)NC(=O)[C@H](Cc3ccccc3)NC(=O)[C@H](C)NC(=O)[C@H](C)NC(=O)[C@H](CC(=O)O)NC(=O)[C@H](CC(=O)O)NC1=O)NC(=O)[C@H](CC(C)(C)C)NC(=O)[C@H](CC(=O)O)NC2=O` (stereo partly drawn) [I-1392, Ac-PL3-Asp-Npg-B5-Asp-Asp-Ala-Ala-Phe-Hse-S8-2Thi-BztA-Gln-NH2], for which the IC50 in assay [1] is 0.013 µM; in assay [2], 18.3 µM.

`CC(=O)N1CCC[C@]12CC=CCCCC1(CCCC=CCCCCCC[C@@](C)(C(=O)N[C@@H](Cc3cccs3)C(=O)N[C@@H](Cc3csc4ccccc34)C(=O)N[C@H](CO)[C@@H](C)O)NC(=O)[C@H](CCO)NC(=O)[C@H](Cc3ccccc3)NC(=O)[C@H](C)NC(=O)[C@H](C)NC(=O)[C@H](CC(=O)O)NC(=O)[C@H](CC(=O)O)NC1=O)NC(=O)[C@H](CC(C)(C)C)NC(=O)[C@H](CC(=O)O)NC2=O` (stereo partly drawn) [I-1393, Ac-PL3-Asp-Npg-B5-Asp-Asp-Ala-Ala-Phe-Hse-S8-2Thi-BztA-Thro1]: the results for the IC50 in assay [1] and in assay [2] were 0.034 µM and 18.6 µM, respectively.

As for `CC(=O)N1CCC[C@]12CC=CCCCC1(CCCC=CCCCCCC[C@@](C)(C(=O)N[C@@H](Cc3ccccc3Cl)C(=O)N[C@@H](Cc3csc4ccccc34)C(=O)N[C@@H](CCC(N)=O)C(N)=O)NC(=O)[C@H](CC(N)=O)NC(=O)[C@H](Cc3ccccc3)NC(=O)[C@H](C)NC(=O)[C@H](C)NC(=O)[C@H](CC(=O)O)NC(=O)[C@H](CC(=O)O)NC1=O)NC(=O)[C@H](CC(C)(C)C)NC(=O)[C@H](CC(=O)O)NC2=O` (stereo partly drawn) [I-1394, Ac-PL3-Asp-Npg-B5-Asp-Asp-Ala-Ala-Phe-Asn-S8-2C1F-BztA-Gln-NH2], the concentration for half-maximal inhibition (IC50) in assay [1] amounted to 0.009 µM; in assay [2], 15.9 µM.

With `CC(=O)N1CCC[C@]12CC=CCCCC1(CCCC=CCCCCCC[C@@](C)(C(=O)N[C@@H](Cc3ccccc3Cl)C(=O)N[C@@H](Cc3csc4ccccc34)C(=O)N[C@@H](CCC(N)=O)C(N)=O)NC(=O)[C@H](CCO)NC(=O)[C@H](Cc3ccccc3)NC(=O)[C@H](C)NC(=O)[C@H](C)NC(=O)[C@H](CC(=O)O)NC(=O)[C@H](CC(=O)O)NC1=O)NC(=O)[C@H](CC(C)(C)C)NC(=O)[C@H](CC(=O)O)NC2=O` (stereo partly drawn) [I-1395, Ac-PL3-Asp-Npg-B5-Asp-Asp-Ala-Ala-Phe-Hse-S8-2C1F-BztA-Gln-NH2], the half-maximal inhibitory concentration (IC50) in assay [1] turned out to be 0.033 µM; in assay [2], 15.4 µM.

Consider `CC(=O)N1CCC[C@]12CC=CCCCC1(CCCC=CCCCCCC[C@@](C)(C(=O)N[C@@H](Cc3ccccc3C(F)(F)F)C(=O)N[C@@H](Cc3csc4ccccc34)C(=O)N[C@@H](CCC(N)=O)C(N)=O)NC(=O)[C@H](CC(N)=O)NC(=O)[C@H](Cc3ccccc3)NC(=O)[C@H](C)NC(=O)[C@H](C)NC(=O)[C@H](CC(=O)O)NC(=O)[C@H](CC(=O)O)NC1=O)NC(=O)[C@H](CC(C)(C)C)NC(=O)[C@H](CC(=O)O)NC2=O` (stereo partly drawn) [I-1396, Ac-PL3-Asp-Npg-B5-Asp-Asp-Ala-Ala-Phe-Asn-S8-2F3MeF-BztA-Gln-NH2], for which the half-maximal inhibitory concentration (IC50) was 0.033 µM in assay [1] and 15.3 µM in assay [2].

As to `CC(=O)N1CCC[C@]12CC=CCCCC1(CCCC=CCCCCCC[C@@](C)(C(=O)N[C@@H](Cc3ccccc3C(F)(F)F)C(=O)N[C@@H](Cc3csc4ccccc34)C(=O)N[C@@H](CCC(N)=O)C(N)=O)NC(=O)[C@H](CCO)NC(=O)[C@H](Cc3ccccc3)NC(=O)[C@H](C)NC(=O)[C@H](C)NC(=O)[C@H](CC(=O)O)NC(=O)[C@H](CC(=O)O)NC1=O)NC(=O)[C@H](CC(C)(C)C)NC(=O)[C@H](CC(=O)O)NC2=O` (stereo partly drawn) [I-1397, Ac-PL3-Asp-Npg-B5-Asp-Asp-Ala-Ala-Phe-Hse-S8-2F3MeF-BztA-Gln-NH2], the IC50 in assay [1] is 0.048 µM; in assay [2], 16.4 µM.

`CC(=O)N1CCC[C@]12CC=CCCCC1(CCCC=CCCCOC(=O)N3CC[C@@](C(=O)N[C@@H](Cc4ccsc4)C(=O)N[C@@H](Cc4csc5ccccc45)C(=O)N[C@@H](CCC(N)=O)C(N)=O)(C3)NC(=O)[C@H](CC(C)C)NC(=O)[C@H](Cc3ccccc3)NC(=O)[C@H](C)NC(=O)[C@H](C)NC(=O)[C@H](CC(=O)O)NC(=O)[C@H](CC(=O)O)NC1=O)NC(=O)[C@H](CC(C)C)NC(=O)[C@H](CC(=O)O)NC2=O` (stereo partly drawn) [I-1399, Ac-PL3-Asp-Leu-B5-Asp-Asp-Ala-Ala-Phe-Leu-PyrS2-3Thi-BztA-Gln-NH2]: the values for the IC50 in assay [1] and in assay [2] were 0.013 µM and 17.4 µM, respectively.

As for `CCCC[C@@H]1NC(=O)[C@H](CC(=O)O)NC(=O)[C@]2(CC=CCCCC3(CCCC=CCCCOC(=O)N4CC[C@@](C(=O)N[C@@H](Cc5ccsc5)C(=O)N[C@@H](Cc5csc6ccccc56)C(=O)N[C@@H](CCC(N)=O)C(N)=O)(C4)NC(=O)[C@H](CC(C)C)NC(=O)[C@H](Cc4ccccc4)NC(=O)[C@H](C)NC(=O)[C@H](C)NC(=O)[C@H](CC(=O)O)NC(=O)[C@H](CC(=O)O)NC3=O)NC1=O)CCCN2C(C)=O` (stereo partly drawn) [I-1400, Ac-PL3-Asp-nLeu-B5-Asp-Asp-Ala-Ala-Phe-Leu-PyrS2-3Thi-BztA-Gln-NH2], the IC50 in assay [1] was found to be 0.005 µM; in assay [2], 20.3 µM.

As to `CCCC[C@@H]1NC(=O)[C@H](CC(=O)O)NC(=O)[C@]2(CC=CCCCC3(CCCC=CCCCOC(=O)N4CC[C@@](C(=O)N[C@@H](Cc5ccsc5)C(=O)N[C@@H](Cc5csc6ccccc56)C(=O)N[C@@H](CCC(N)=O)C(N)=O)(C4)NC(=O)[C@H](CCCC)NC(=O)[C@H](Cc4ccccc4)NC(=O)[C@H](C)NC(=O)[C@H](C)NC(=O)[C@H](CC(=O)O)NC(=O)[C@H](CC(=O)O)NC3=O)NC1=O)CCCN2C(C)=O` (stereo partly drawn) [I-1401, Ac-PL3-Asp-nLeu-B5-Asp-Asp-Ala-Ala-Phe-nLeu-PyrS2-3Thi-BztA-Gln-NH2], the IC50 in assay [1] was 0.005 µM; in assay [2], 21.4 µM.

For `CCCC[C@@H]1NC(=O)[C@H](CC(=O)O)NC(=O)[C@]2(CC=CCCCC3(CCCC=CCCCOC(=O)N4CC[C@@](C(=O)N[C@@H](Cc5ccccc5)C(=O)N[C@@H](Cc5csc6ccccc56)C(=O)N[C@@H](CCC(N)=O)C(N)=O)(C4)NC(=O)[C@H](CC(C)C)NC(=O)[C@H](Cc4ccccc4)NC(=O)[C@H](C)NC(=O)[C@H](C)NC(=O)[C@H](CC(=O)O)NC(=O)[C@H](CC(=O)O)NC3=O)NC1=O)CCCN2C(C)=O` (stereo partly drawn) [I-1403, Ac-PL3-Asp-nLeu-B5-Asp-Asp-Ala-Ala-Phe-Leu-PyrS2-Phe-BztA-Gln-NH2], the 50% inhibitory concentration (IC50) in assay [1] amounted to 0.006 µM; in assay [2], 29.1 µM.

Turning to `CCCC[C@@H]1NC(=O)[C@H](Cc2ccccc2)NC(=O)[C@H](C)NC(=O)[C@H](C)NC(=O)[C@H](CC(=O)O)NC(=O)[C@H](CC(=O)O)NC(=O)C2(CCCC=CCCCOC(=O)N3CC[C@@](C(=O)N[C@@H](Cc4ccccc4)C(=O)N[C@@H](Cc4csc5ccccc45)C(=O)N[C@@H](CCC(N)=O)C(N)=O)(C3)NC1=O)CCCC=CC[C@]1(CCCN1C(C)=O)C(=O)N[C@@H](CC(=O)O)C(=O)N[C@@H](CC(C)C)C(=O)N2` (stereo partly drawn) [I-1404, Ac-PL3-Asp-Leu-B5-Asp-Asp-Ala-Ala-Phe-nLeu-PyrS2-Phe-BztA-Gln-NH2], the IC50 stood at 0.113 µM in assay [1] and 36.8 µM in assay [2].

For `CCCC[C@@H]1NC(=O)[C@H](CC(=O)O)NC(=O)[C@]2(CC=CCCCC3(CCCC=CCCCOC(=O)N4CC[C@@](C(=O)N[C@@H](Cc5ccccc5)C(=O)N[C@@H](Cc5csc6ccccc56)C(=O)N[C@@H](CCC(N)=O)C(N)=O)(C4)NC(=O)[C@H](CCCC)NC(=O)[C@H](Cc4ccccc4)NC(=O)[C@H](C)NC(=O)[C@H](C)NC(=O)[C@H](CC(=O)O)NC(=O)[C@H](CC(=O)O)NC3=O)NC1=O)CCCN2C(C)=O` (stereo partly drawn) [I-1405, Ac-PL3-Asp-nLeu-B5-Asp-Asp-Ala-Ala-Phe-nLeu-PyrS2-Phe-BztA-Gln-NH2], the half-inhibitory concentration (IC50) in assay [1] was 0.009 µM; in assay [2] it was 40.1 µM.

A word on the IC50: it is the concentration needed to halve the response being measured.

The values above are taken from US20240116985A1, “STAPLED PEPTIDES AND METHODS THEREOF” (priority 2020, published 2024).
